# Assay results reported in patent US20240180872A1, “METHODS AND COMPOUNDS OF CANNABIDIOL, MELATONIN AND AKBA FOR TREATING PANCREATIC CANCER” (priority 2021, published 2024).
# Columns and labels:
# MIAPaCa-2 cell line = test: Cytotoxicity assay (MTT, 72 hours, daily administration) in MIAPaCa-2; settings: Homo sapiens, MIA PaCa-2, read-out: % VIABILITY ± S.D.
# Experimental: Human pancreatic ductal adenocarcinoma (PANC-1 and MIAPaCa-2) cell lines were purchased by Sigma Aldrich (Milan, Italy) and cultured in DMEM high glucose medium (EuroClone, Milan, Italy) supplemented with 10% of fetal bovine serum (FBS), 2 mM L-glutamine, 100 IU/mL penicillin, 100 mg streptomycin and 1 mM sodium pyruvate. Cell lines were maintained at 37° C. with 5% CO2 and 95% of humidity.
# 3×10^4 cells/mL were seeded in 96-well plates in a final volume of 100 L/well. After one day of incubation, compounds or vehicles, alone or in combination, were added and six replicates were used for each treatment and all experiments were repeated three times. In all the experiments, the treatment was daily added, after washing with fresh medium. After 72 hours cell viability was investigated by adding 0.8 mg/mL of 3-[4,5-dimethylthiazol-2-yl]-2,5 diphenyl tetrazolium bromide (MTT) (Sigma Aldrich) to the media. After 3 h the supernatant was removed, and the pellet of salt crystals was solubilized with 100 μL/well of DMSO. The absorbance of the sample against a background control was measured at 570 nm using an ELISA reader microliter plate (BioTek Instruments, Winooski, VT, USA).
# Cytotoxicity in PDAC cell lines: The effect of CBD, MLT and AKBA in reducing cell viability was evaluated at 72 hours, post daily administration, in PDAC cell lines. Cells were treated with different doses of CBD, MLT and AKBA (up to 1 mg) and percentage of cell viability was evaluated by the MTT assay. […] The compounds were administered daily for 72 hours, as in previous experiments at the desired doses. […] MTT assay was used to analyse the cell cytotoxicity.
# [1] = system: pancreatic adenocarcinoma associated genes; test: TaqMan Array gene expression in MIAPaCa-2, normalized for GAPDH; format: cell-based, Human; settings: Mia-PACA-2, 24 hs, CBD 3.8, MLT 200, AKBA 7.5 micrograms/ml
# Experimental: Total RNA from untreated or CBD, MLT, AKBA alone and in combination treated cell lines was extracted using Rneasy Mini kit (Qiagen, Milan, Italy). One microgram of total RNA from each sample was subjected to reverse transcription in a total volume of 20 μL using the High-Capacity cDNA Archive Kit (Applied Biosystem, Foster City, […], USA) according to the instructions. cDNAs were analyzed by qRT-PCR performed using an IQ5 Multicolor Real time PCR Detection system. Quantitative real-time gene expression was performed with the TaqMan® Array Human Pancreatic Adenocarcinoma 96-well Plate, containing 92 assays to pancreatic adenocarcinoma associated genes and 4 assays to candidate endogenous control genes, was purchased (Thermo Fisher, Grand Island, NY, USA) and used to evaluate the treatments in modulating PDAC-related genes (Table 1). Measurement of different housekeeping genes (GAPDH; HPRT1; GUSB) on the samples was used to normalize mRNA content. The gene expression levels of treated cell lines were expressed as relative fold compared with untreated or vehicle-treated cells.
# To elucidate the molecular events induced by CBD, MLT and AKBA alone and in combination, 92 genes involved in PDAC progression and aggressiveness were evaluated by Taqman Array. Both cell lines were treated with CBD, MLT and AKBA alone and in combination, and the molecular pathways of PDAC associated gene were evaluated.
# Target mRNA levels were normalized for GAPDH expression.
# [2] = normalized for GAPDH, Akt pathways
# [3] = normalized for GAPDH, Akt-pathways
# [4] = normalized for GAPDH, DNA repair
# [5] = normalized for GAPDH, NfkB pathways
# [6] = normalized for GAPDH, Ras pathways
# [7] = normalized for GAPDH, TGF patways
# [8] = normalized for GAPDH, TGF-patways
# [9] = normalized for GAPDH, angiogenesis
# [10] = normalized for GAPDH, apoptosis
# [11] = normalized for GAPDH, cell cycle
# [12] = normalized for GAPDH, inflammation
# [13] = normalized for GAPDH, proliferation
structure (smiles),measurement,setting,value
"C=C(C)[C@@H]1CCC(C)=C[C@H]1c1c(O)cc(CCCCC)cc1O [CBD, 2-[(1R,6R)-3-methyl-6-prop-1-en-2-ylcyclohex-2-en-1-yl]-5-pentylbenzene-1,3-diol]",viability at 1.9 µg/mL,MIAPaCa-2 cell line,74.8 ± 7.2%
same,viability at 3.8 µg/mL,MIAPaCa-2 cell line,29.5 ± 1.9%
same,viability at 7.6 µg/mL,MIAPaCa-2 cell line,9.2 ± 0.4%
same,viability at 15.2 µg/mL,MIAPaCa-2 cell line,5.2 ± 0.4%
same,GAPDH relative expression,[1]; GAPDH is the normalizer,1.00
same,PK3CB relative expression,[1]; [2],0.10
same,PK3CD relative expression,[1]; [2],0.08
same,AKT1 relative expression,[1]; [3],0.10
same,AKT2 relative expression,[1]; [3],0.54
same,AKT3 relative expression,[1]; [3],0.00
same,IGF1 relative expression,[1]; [3],0.00
same,PK3CA relative expression,[1]; [3],0.03
same,PK3R1 relative expression,[1]; [3],0.04
same,BRCA2 relative expression,[1]; [4],0.16
same,MDM2 relative expression,[1]; [4],0.04
same,TP53 relative expression,[1]; [4],0.22
same,HSP90AA1 relative expression,"[1]; normalized for GAPDH, Heat sock protein",0.42
same,NFKB1 relative expression,[1]; [5],0.04
same,NFKB2 relative expression,[1]; [5],0.15
same,REL relative expression,[1]; [5],0.11
same,RELA relative expression,[1]; [5],0.06
same,RELB relative expression,[1]; [5],0.26
same,RHOA relative expression,[1]; [5],0.34
same,RHOB relative expression,[1]; [5],0.04
same,BRAF relative expression,[1]; [6],0.22
same,E2F1 relative expression,[1]; [6],0.15
same,E2F3 relative expression,[1]; [6],0.08
same,E2F4 relative expression,[1]; [6],0.19
same,EGF relative expression,[1]; [6],0.00
same,EGFR relative expression,[1]; [6],0.21
same,ELK1 relative expression,[1]; [6],0.09
same,ERBB2 relative expression,[1]; [6],0.02
same,GRB2 relative expression,[1]; [6],0.13
same,HBEGF relative expression,[1]; [6],0.13
same,KRAS relative expression,[1]; [6],0.09
same,MAP2K1 relative expression,[1]; [6],0.00
same,MAP2K2 relative expression,[1]; [6],0.08
same,MAPK1 relative expression,[1]; [6],0.07
same,MAPK3 relative expression,[1]; [6],0.01
same,RAF1 relative expression,[1]; [6],0.01
same,RB1 relative expression,[1]; [6],0.06
same,SOS1 relative expression,[1]; [6],0.06
same,TGFB2 relative expression,[1]; [7],0.08
same,TGFB3 relative expression,[1]; [7],0.00
same,TGFBR1 relative expression,[1]; [7],0.02
same,SMAD2 relative expression,[1]; [8],0.06
same,SMAD3 relative expression,[1]; [8],0.18
same,SMAD4 relative expression,[1]; [8],0.07
same,TGFA relative expression,[1]; [8],0.64
same,TGFB1 relative expression,[1]; [8],0.06
same,TGFBR2 relative expression,[1]; [8],0.00
same,FIGF relative expression,[1]; [9],0.11
same,VEGFA relative expression,[1]; [9],0.02
same,VEGFB relative expression,[1]; [9],0.06
same,VEGFC relative expression,[1]; [9],0.03
same,BCL2L1 relative expression,[1]; [10],0.26
same,BCL2 relative expression,[1]; [10],0.00
same,BIRC5 relative expression,[1]; [10],0.11
same,CCNA2 relative expression,[1]; [11],0.01
same,CCNB1 relative expression,[1]; [11],0.37
same,CCND1 relative expression,[1]; [11],0.11
same,CCND2 relative expression,[1]; [11],0.00
same,CCNE1 relative expression,[1]; [11],0.10
same,CCNE2 relative expression,[1]; [11],0.12
same,CDC42 relative expression,[1]; [11],0.05
same,CDK2 relative expression,[1]; [11],0.15
same,CDK4 relative expression,[1]; [11],0.25
same,CDKN1A relative expression,[1]; [11],0.04
same,CDKN1B relative expression,[1]; [11],0.11
same,CDKN2A relative expression,[1]; [11],0.26
same,CDKN2B relative expression,[1]; [11],0.42
same,CDKN2C relative expression,[1]; [11],0.03
same,CDKN2D relative expression,[1]; [11],0.04
same,IL6 relative expression,[1]; [12],0.00
same,JAK1 relative expression,[1]; [12],0.27
same,JAK2 relative expression,[1]; [12],0.01
same,JAK3 relative expression,[1]; [12],0.01
same,STAT1 relative expression,[1]; [12],0.11
same,STAT2 relative expression,[1]; [12],0.04
same,STAT3 relative expression,[1]; [12],0.06
same,STAT6 relative expression,[1]; [12],0.79
same,STATSB relative expression,[1]; [12],0.03
same,MMP1 relative expression,"[1]; normalized for GAPDH, invasion",0.00
same,MMP2 relative expression,"[1]; normalized for GAPDH, invasion",0.07
same,MMP3 relative expression,"[1]; normalized for GAPDH, invasion",0.00
same,MMP7 relative expression,"[1]; normalized for GAPDH, invasion",0.01
same,MMP9 relative expression,"[1]; normalized for GAPDH, invasion",0.01
same,PTGS2 relative expression,"[1]; normalized for GAPDH, invasion",0.00
same,RAC1 relative expression,"[1]; normalized for GAPDH, invasion",0.11
same,RAC2 relative expression,"[1]; normalized for GAPDH, invasion",0.01
same,KIT relative expression,[1]; [13],0.00
same,NOTCH1 relative expression,[1]; [13],0.02
same,SRC relative expression,[1]; [13],0.03
